Laboratory results published in US20110076349A1 (priority 2008, published 2011).
Structures can show the parent of a compound that is named as a salt.

How the values were obtained:
Assay type in all cases: in vivo, mouse
male C57BL/6N mice [1] = test: Forced swimming treatment and amount of spontaneous activity in dark period (fatigue-relieving effects); settings: dark period after 30 minutes of forced swimming; compared with FS-Vehicle group
Protocol: An experiment for determining the fatigue-improving effects (action) was conducted using a forced swimming test for mice and a system for measuring the amount of spontaneous activity. Sixty eight (68) male C57BL/6N mice that had experienced no experiment were bred in an animal room with a constant temperature and humidity for which a 12-12-hour light-dark cycle had been set. Mice were sufficiently acclimatized to breeding environment and then used as subject animals. At the start of the experiment, mice were 10-12-week old and the average body weight was 22.8 g (SD =1.28). The subject animals were divided into seven groups so that the groups were almost the same in terms of average body weights and average ages in weeks. These groups were designated an FS-Akino group (n=11), an FS-Vehicle group (n=10), a noFS-Vehicle group (n=9), an FS-Dia group (n=9), an FS-Caf group (n=9), an FS-Imi group (n=11), and an FS-SSRI group (n=9).
A cylindrical water tank (with the bottom surface having a diameter of 18 cm and a height of 29 cm) placed in an experimental chamber capable of achieving sound proof and light shielding was filled with water at 24±1° C. to a depth of 15 cm. At 7 hours before the start of a dark period, subject mice under FS conditions were subjected to 30 minutes of forced swimming treatment in the tank. Specifically, subject mice were forced to swim under conditions in which they could not escape. Subject mice of the control noFS-Cnt group were left to stand within the same type of empty water tank for 30 minutes.
After 30 minutes of forced swimming treatment, Akino (the water soluble ingredient extracted from Hemerocallis fulva var. sempervirens), diazepam (Dia, 2.5 mg/kg), caffeine (Caf, 15 mg/kg), imipramine (Imi, 30 mg/kg), SSRI (fluvoxamine maleate, 25 mg/kg), or Vehicle (distilled water), which is an ingredient, corresponding to the latter half of each group name, were specifically administered to each subject mouse. Akino and distilled water were orally administered using a stomach tube, and diazepam, caffeine, imipramine, and SSRI were injected intraperitoneally. The dose was always 10 ml of solution per kg mouse body weight.
After administration of these drugs, subject mice were placed in acrylic cages (20 cm long×30 cm wide×12 cm high). The amount of spontaneous activity (in the dark period that began at 6 hours after administration) was continuously measured for 12 hours. The breeding cages used herein were sterilized in advance. All floor mats, feeding stuffs, water supply bottles, and the like used herein were newly prepared. The amount of spontaneous activity was measured using a system for measuring the amount of exercise of experimental animals (Muromachi Kikai Co., Ltd.) using Super Mex Sensor and dedicated software (CompACT AMS ver.3).

mice [2] = test: Comparison of sedative effects with other test substances (FIG. 3); settings: same dose, 0.8 g/kg, p.o.
mice [3] = test: Deep body temperature measurement, comparison with other test substances (FIG. 18); settings: same concentration for all test substances
male C57BL/6N mice [4] = test: Open space swimming treatment and water maze learning (antidepressant-like effects); settings: phase 2 after open space swimming; 25 mg/kg intraperitoneal
Description: Fifty (50) male C57BL/6N mice that had experienced no experiment were bred in an animal room with a constant temperature and humidity for which a 12-12-hour light-dark cycle had been set. Mice were sufficiently acclimatized to breeding environment and then used as subject animals. At the start of the experiment, mice were 10-14-week old and the average body weight was 23.7 g (SD=3.21). The subject animals were divided into four groups each consisting of 12 or 13 mice so that the groups were almost the same average body weights and average ages in weeks. These groups were designated an OS-Akino group, an OS-SSRI group, an OS-Vehicle group, and a noOS-Vehicle group, respectively. An experimental apparatus was a circular pool coated white having a diameter of 110 cm and a height of 40 cm. The pool was filled with water to the depth of 22 cm. Titanium oxide was added to make water cloudy. The water temperature was maintained at 24° C.±1 ° C.
The experiment was composed of two phases. In phase 1, subject mice of the 3 groups under OS conditions were subjected to open space swimming treatment (OS) for 5 straight days. Specifically, subject mice were released into the pool from a wall once a day and then caused to swim for 5 minutes. […] Specifically, 5 times a day, mice were released into the pool and then the time for the mice to reach the escape platform (escape latency) was measured. […]

Row | Structure (SMILES) | amount of spontaneous activity (male C57BL/6N mice [1]) | sedative effects (mice [2]) | rectal temperature (deep body temperature) (mice [3]) | water maze learning (male C57BL/6N mice [4])
1 | Cn1c(=O)c2c(ncn2C)n(C)c1=O [Caf, caffeine] | equivalent to that of the FS-Vehicle group |  |  | 
2 | CN1C(=O)CN=C(c2ccccc2)c2cc(Cl)ccc21 [Dia, diazepam] | higher than that of the FS-Vehicle group |  |  | 
3 | NCCCC(=O)O [GABA, γ-aminobutyric acid] |  | sedative effects | lowered the deep body temperature, but the rate of decrease was lower | 
4 | CN(C)CCCN1c2ccccc2CCc2ccccc21 [Imi, imipramine] | equivalent to that of the FS-Vehicle group |  |  | 
5 | COCCCC/C(=N\OCCN)c1ccc(C(F)(F)F)cc1 [SSRI, fluvoxamine maleate] | equivalent to that of the FS-Vehicle group |  |  | good learning
6 | NCC(=O)O [glycine] |  | sedative effects | lowered the deep body temperature, but the rate of decrease was lower | 
7 | CCNC(=O)CC[C@H](N)C(=O)O [teanin] |  | sedative effects | lowered the deep body temperature, but the rate of decrease was lower | 
